# Source: patent US20250188150A1, “PEPTIDES FOR THE TREATMENT OF FIBROSIS” (Technion Research & Development Foundation Limited, priority 2022, published 2025)
# Experiments:
# [1] = target: T1, LOXL3 (Homo sapiens, UniProt P58215); test: Oxidation assay of peptides by LOXL3; type: biochemical; conditions: for oxidation of the peptide by LOXL3: oxidation assay
# T1 sequence (P58215 26-753): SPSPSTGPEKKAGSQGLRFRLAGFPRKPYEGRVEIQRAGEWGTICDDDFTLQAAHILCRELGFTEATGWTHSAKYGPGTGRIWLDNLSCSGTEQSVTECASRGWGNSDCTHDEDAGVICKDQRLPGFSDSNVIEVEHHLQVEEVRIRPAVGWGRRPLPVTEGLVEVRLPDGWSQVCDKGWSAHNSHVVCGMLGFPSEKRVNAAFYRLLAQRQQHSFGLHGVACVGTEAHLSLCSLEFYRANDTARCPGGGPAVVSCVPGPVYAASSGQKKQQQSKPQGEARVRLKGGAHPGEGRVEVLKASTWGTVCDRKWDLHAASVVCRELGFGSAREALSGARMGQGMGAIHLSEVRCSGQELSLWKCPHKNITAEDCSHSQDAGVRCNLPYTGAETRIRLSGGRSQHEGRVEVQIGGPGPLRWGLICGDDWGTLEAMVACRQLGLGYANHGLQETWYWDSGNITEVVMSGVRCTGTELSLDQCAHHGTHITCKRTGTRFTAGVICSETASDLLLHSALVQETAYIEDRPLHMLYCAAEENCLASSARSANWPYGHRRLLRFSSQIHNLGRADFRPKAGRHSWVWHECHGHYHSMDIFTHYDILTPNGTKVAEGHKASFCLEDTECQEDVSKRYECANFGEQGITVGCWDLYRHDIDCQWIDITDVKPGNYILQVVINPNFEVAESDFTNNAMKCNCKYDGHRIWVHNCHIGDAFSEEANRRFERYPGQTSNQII
# [2] = target: T1, LOXL3; test: Spreading and adhesion of Pax-GFP cells on LOXL3-treated FN with or without βAPN; type: cell-based; design: purchased R&D systems 6069-AO
# Protocol: Spreading and soft gel experiments: Ibidi 8-wellplates (Ibidi, 190814/1) were coated with human plasma FN (hFN, Sigma-Aldrich, FC010-10MG, 10 μg/ml) for 1 hour at 37° C. Afterwards, the samples were treated with human recombinant LOXL3 (RhLOXL3, R&D systems, 6069-AO) or LOXL2 (RhLOXL2, R&D systems, 2639-AO) for 5 hours (or sodium borate buffer 50 mM as control), with or without 200 mM βAPN (Sigma, A3134-25G) and then washed. Then, cells were seeded on the FN matrix and fixed at varying time points after spreading, followed by immunostaining. For soft gel experiments, Ibidi 8-well plates were covered with silicone gels (DOWSIL, CY 52-276 A&B), prepared at different rigidities that were previously calibrated and described (42) previous to FN coating. Images were acquired using an LSM800 confocal microscope (Zeiss) with Airyscan function and 20× or 63× objectives. […]
# Nascent adhesion formation, even on very stiff matrices, requires at least four RGD (Arg-Gly-Asp) ligands that are localized within ˜60 nm from each other (35, 36). […] Towards that end, following enzymatic treatment, FN was coated on glass coverslips and Pax-GFP cells were added and shortly after (15 or 30 minutes) fixed and analyzed.
# [3] = test system: lung fibroblasts; test: Lung fibroblast proliferation (culture confluency) with peptides; type: cell-based; conditions: following 72 hours in culture
# From the text: Note the lack of effect in the first day of culturing (G).
# [4] = test system: human dermal fibroblast (HDF) cells; test: Fibronectin fibrillogenesis (FN immunostaining) under HDF cells exposed to peptides; type: cell-based; conditions: HDF on glass without external FN coating, fixed after 1 week; compared with control peptides (FN1-3, FN1-9) or untreated sample
# Protocol: (§1) Adhesion, cell area andfibronectin analysis: All of the adhesion and fibronectin fibrils analyses shown in this paper were performed using the trainable Weka segmentation plugin (41) of ImageJ (NIH) software.
# Immunofluorescence: Cells were fixed with 4% paraformaldehyde solution (36% stock, Sigma-Aldrich, 50-00-0, diluted with PBS) and permeabilized with 0.1% Triton X-100 in PBS (PBT 0.1%). Primary antibodies were incubated with the fixed cells over night at 4° C. After, secondary antibodies and phalloidin were incubated for 1 hour at room temperature. For dSTORM imaging, a second 10 minutes fixation was performed at the end of the immunostaining protocol.
# Representative images (FIGS. 8A-E) of fibronectin immunostaining (color-coded for intensity) underneath human dermal fibroblast (HDF) cells exposed to the different peptides (8B—SEQ ID NO: 21, 8C—SEQ ID NO: 22; 8D—SEQ ID NO: 19; 8E—SEQ ID NO: 20), seeded on glass without external FN coating and fixed after 1 week (A-E, scale=20 μm) illustrate that inhibitor peptides block fibronectin fibrillogenesis.
# [5] = test system: HDF cells; test: HDF cell area after exposure to peptides; type: cell-based, human; conditions: HDF on glass without external FN coating, fixed after 1 week; compared with control peptides or untreated sample
# Protocol: as §1
# Representative images (FIGS. 9A-E) of HDF cell contour following exposure to the different peptides (9B—SEQ ID NO: 21, 9C—SEQ ID NO: 22; 9D—SEQ ID NO: 19; 9E—SEQ ID NO: 20), seeded on glass without external FN coating and fixed after 1 week (A-E, scale=100 μm) illustrate that inhibitor peptides reduce cell size.
Compound,effect on LOXL3 oxidation of inhibitor peptides ([1]; addition of βAPN to the oxidation assay),"cell spreading on LOXL3-treated FN ([2]; βAPN added following the FN treatment, compared to treated FN without the inhibitor)","increases in adhesion sizes and cell areas on LOXL3-treated FN ([2]; βAPN added to the FN-LOXL3 mix throughout the reaction, glass, 15 minutes)",culture confluency (cell proliferation) [3],oxidation of the peptide by LOXL3 [1],total fibronectin fibrils [4],cell area [5]
"N#CCCN [βAPN, beta-aminopropionitrile]",oxidation is inhibited,no difference was observed in cell spreading,blocked,–,–,–,–
DQCQDSETGTFYQIGDSWEKYVHGVRYQCYCYGRGIGEWHCQPL (FN1-9 (control peptide)),–,–,–,not with the control peptide (FN1-9) inhibit cell proliferation,not the control peptides (FN1-3 and FN1-9) undergo oxidation by LOXL3,–,–
ETCFDKYTGNTYRVGDTYERPKDSMIWDCTCIGAGRGRISCTIA (FN1-2 (Inhibitor peptide) long version of FN1-2),–,–,–,inhibit cell proliferation,undergo oxidation by LOXL3,reduction in fibrils,significant reduction
